Experimental data as given in US20070026090A1, “Treatment and prevention of inflammatory disease and mitochondrial dysfunction with high dose selenium” (priority 2003, published 2007).
Entries after “also recorded” stand apart in the source; their conditions may differ. Where two headings read alike, the source gives them in different places.

Assays:
GAPDH = GAPDH housekeeping control transcript (RTPCR); format: cell-based, murine
Experimental: Reverse transcriptase-PCR (RTPCR): Total RNA was prepared and isolated by the Tri-Reagent method according to the manufacturer's protocol (Sigma, St. Louis Mo., USA). Total RNA (1 μg) was converted into cDNA using Reverse-iT first strand synthesis kit (Abgene, UK). Amplification of MnSOD and UCP2 sequences was performed by incubating 10 ng equivalents of DNA with the following oligonucleotide primers:
The sequence of glyceraldehyde-3-phosphate dehydrogenase (GAPDH) was amplified as a control using the following primers: Left (sense) 5′-[…]-3′(SEQ ID NO: 9) corresponding to nucleotides 364 to 382 of mouse mRNA (GenBank Accession No. XM 195823.21).
Right (antisense) 5′[…]-3′ (SEQ ID NO: 10) corresponding to nucleotides 683 to 703 of mouse mRNA (GenBank Accession No. XM 195823.21). The expected PCR product was 339 bp. Actual PCR product was approximately 340 bp, measured on 1.25% agarose gel in TAE containing ethidium bromide.
PCR was performed with 28 cycles (25 cycles for GAPDH) of 30 seconds at 96° C., 30 seconds at 58° C. and 1 min at 72° C. RTPCR products were analyzed on 1.3% (w/v) agarose gels.

[1] = system: mitochondrial respiration in colon tissue; assay: Mitochondrial respiration (oxygen consumption) in colon tissue of supplemented rats; format: in vivo, rat
Experimental: Mitochondrial respiration activity in colon tissue: Mitochondrial respiration was measured by direct assessment of oxygen consumption of the tissue. Briefly, colons were removed, chilled on ice, and washed extensively with cold PBS. Colon tissue samples (5-10 mm in width, 100 mg) were incubated at ambient temperature in PBS supplemented with 5 mM glucose. Oxygen consumption was measured polarographically using a computerized Clark-type oxygen electrode. The addition of the Electron Transport Chain (complex 1) inhibitor rotenone was used to determine whether the majority of oxygen consumption measured in the colon samples was mitochondrial respiration-dependent.

Sp1 = Sp1 binding in vitro, selenite added to nuclear extract (EMSA); set-up: species or system murine; conditions: 5 μM added to nuclear extract 5 minutes before (FIG. 13C)
Experimental: (§1) Nuclear extracts: Nuclear Extracts were prepared using a slight modification of the method of Dignam et al (23). Treated cells were washed with cold PBS, scraped and centrifuged. Hypotonic buffer (1 ml, 20 mM HEPES pH 7.0, 10 mM KCl, 1 mM mGCl2, 0.5 mM DTT, 0.1% Triton X-100, 20% glycerol, 2 mM PMSP, 1 mg/ml Aprotonin and Leupeptin) was added to the cell pellets, the pellets were disrupted by pipetting, and centrifuged 3000 RPM for 5 min. The pellets were re-suspended in 100 μl cold extraction buffer (20 mM HEPES pH 7.0, 10 mM KCl, 1 mM mGCl2, 0.5 mM DTT, 0.1% Triton X-100, 20% glycerol, 2 mM PMSF, 1 mg/ml Aprotonin and Leupeptin, 420 mM NaCl). The samples were rotated for 20 min at 4° C., centrifuged 15,000 RPM for 10 min, and supernatants collected. Protein content was measured using Bradford reagent. Samples were stored frozen at minus 70° C.
Electromobility shift assay (EMSA)—Gel shift assays were performed according to the gel shift assay protocol from Promega Corp. (San Luis Obispo, Calif.). A 22-mer double-stranded NF-κB consensus oligonucleotide 5′-[…]-3′ (SEQ ID NO:3), and Sp1 consensus oligonucleotide 5′-[…]-3(SEQ ID NO:4), were labeled with 32P. […]

NF-κB [2] = assay: NF-κB binding in vitro, selenite added to nuclear extract (EMSA); set-up: species or system murine; conditions: 5 μM added to nuclear extract 5 minutes before (FIG. 12B)
Experimental: Electromobility shift assay (EMSA)—Gel shift assays were performed according to the gel shift assay protocol from Promega Corp. (San Luis Obispo, Calif.). […] For each reaction, 2 μg of nuclear extract were incubated with 2 μl of 5× binding buffer for 5 min., 1 μl of the ^32P-labeled oligonucleotide was added at room temperature for 20 min., the samples were prepared by adding 1 μl of dye free loading buffer, and separated using 6% non-denaturing acrylamide gel electrophoresis. […]

lipid peroxidation (MDA) = assay: Lipid peroxidation: MDA levels in colon tissue (HPLC); format: in vivo, rat; conditions: colitis-induced and uninduced rats, selenium supplemented group; data not presented
Experimental: Lipid peroxidation—MDA levels: MDA levels in the colon tissue were determined as an indicator of lipid peroxidation using HPLC methodology (Valacchi et al., 2000). Briefly, tissue sections (100 mg) were homogenized in 1% Triton X 100 PBS. The suspended tissue was diluted 1:1 with 1% SDS solution and incubated with 250 ul TBA reagent (0.375 g TBA/100 ml) and 200 ul phosphoric acid (1.22 M) for 30 min at 100° C. Methanol ([…]) was added for protein precipitation and NaOH (20 ml, 1N) added for pH neutralization. After centrifugation, 100 ul clear supernatant was injected into a HPLC system, using a C185 m, 250 mm^a 4.6 mm internal diameter, reversed phase column (Alltech, Deerfield, Ill., USA). The mobile phase consisted of 60% methanol and 40% 50 mM NaH2PO4, pH 5.5. The flow rate was 0.9 ml/min and the detector was set to 532 nm. HPLC colarray ESA was used.

[3] = Cell viability (PI exclusion, flow cytometry); format: cell-based, murine; conditions: mouse, J774.2 macrophages, 10 μM, 24 hour exposure
Experimental: Experiments were performed on cells at 60% confluence.
Determination of cell viability: Cell-membrane integrity was detected by flow cytometer (FACSort, Becton Dickenson and Co., San Jose, Calif. USA) as a measurement of cell viability. For this assay, the nonpermeant DNA-intercalating dye propidium iodide (PI), which is excluded by viable cells, was used. Fluorescence settings were excitation at 488 nm and emission at 575 nm. Data were collected from at least 10,000 cells.

NF-κB [4] = assay: NF-κB binding activity of nuclear extracts of treated macrophages (EMSA); format: cell-based, murine
Experimental: Cell culture: Murine J774.2 macrophages (kindly provided by Prof. Dov Zipori from the Weizmann Institute of Science) were grown in RPMI medium supplemented with 10% (w/v) fetal calf serum, penicillin (100 U/ml), streptomycin (100 μg/ml) and 1× glutamine at 37° C. in a humidified atmosphere consisting of 95% air and 5% CO2. Experiments were performed on cells at 60% confluence.
as §1
Electromobility shift assay (EMSA)—Gel shift assays were performed according to the gel shift assay protocol from Promega Corp. (San Luis Obispo, Calif.). A 22-mer double-stranded NF-κB consensus oligonucleotide 5′-[…]-3′ (SEQ ID NO:3), and Sp1 consensus oligonucleotide 5′-[…]-3(SEQ ID NO:4), were labeled with 32P. For each reaction, 2 μg of nuclear extract were incubated with 2 μl of 5× binding buffer for 5 min., 1 μl of the ^32P-labeled oligonucleotide was added at room temperature for 20 min., the samples were prepared by adding 1 μl of dye free loading buffer, and separated using 6% non-denaturing acrylamide gel electrophoresis. The gel was dried and exposed to a phosphoimaging screen for 18 hours and then visualized with a phosphoimager. For specificity, 1 μl of unlabeled consensus oligonucleotide was used to compete with the labeled probe.

[5] = in vivo; cited from earlier work

[Se] [selenium]
GADPH expression, activated macrophages (GAPDH; LPS + INFγ activated (FIG. 11)): No effect
GADPH RNA levels (GAPDH; resting J774.2 (FIGS. 9, 10)): No effect
hapten-induced impairment in oxygen consumption ([1]; 24 h after TNBS, supplemented vs unsupplemented (FIG. 5 C vs D), unsupplemented approximately 70% impairment): prevented a significant proportion
oxygen consumption in healthy colon tissue ([1]; healthy rats, supplemented vs unsupplemented (FIG. 5 B vs A)): little effect; also recorded: did not enhance
Sp-1 binding in vitro (Sp1): directly inhibited
NF-κB binding in vitro (NF-κB [2]): directly inhibited
colon tissue lipid peroxidation (MDA content) (lipid peroxidation (MDA)): no changes
cytotoxicity at 24 h, 10 μM ([3]; LPS + INFγ activated (FIG. 14A column c), read-out: decrease in viability, activated cells): ≤ 50%
cytotoxicity at 24 h, 10 μM ([3]; not activated, read-out: decrease in viability, control cells): 60%
NF-κB translocation, resting unactivated macrophages (NF-κB [4]; 0.5-5 μM, 72 hours (FIG. 12A)): no effect
lowest concentration with dramatic effect on NF-κB translocation, activated macrophages (NF-κB [4]; 72 hours, then 6 hours LPS + INFγ, range 0.5-5 μM (FIG. 12A)): 0.5 µM
nuclear import of NF-κB, activated macrophages (NF-κB [4]; concentration-dependent (FIG. 12A)): dramatically reduced
average lifetime daily intake with biochemical and clinical symptoms [5]: greater than 1000 microgram
